ChEMBL document CHEMBL5244272 (Eur J Med Chem, 2021)
Values after ≈ are worked out from the molar mass of the structure shown.

Tests used:
Plasmodium vinckei [1] = test: Antimalarial activity against Plasmodium vinckei infected in ip dosed mouse; format: functional
Plasmodium vinckei [2] = test: Antimalarial activity against Plasmodium vinckei infected in po dosed mouse; format: functional
Plasmodium falciparum [3] = test: Antimalarial activity against Plasmodium falciparum FcB1 at 1 ng/ml; format: functional
Plasmodium falciparum [4] = test: Antimalarial activity against Plasmodium falciparum FcB1 at 10 ng/ml; format: functional
Plasmodium falciparum [5] = test: Antimalarial activity against Plasmodium falciparum FcB1 at 100 ng/ml; format: functional
Plasmodium falciparum [6] = test: Antimalarial activity against Plasmodium falciparum D6; format: functional, organism-based
Plasmodium falciparum [7] = test: Antimalarial activity against Plasmodium falciparum W2; format: functional, organism-based
Plasmodium berghei [8] = test: Antimalarial activity against Plasmodium berghei infected in mouse assessed as increase in survival at 100 mg/kg, po; format: functional
Plasmodium falciparum [9] = test: Antimalarial activity against ART-sensitive Plasmodium falciparum 3D7; format: functional, organism-based
Plasmodium falciparum [10] = test: Antimalarial activity against ART-sensitive Plasmodium falciparum W2; format: functional, organism-based
Plasmodium falciparum [11] = test: Antimalarial activity against ART-sensitive Plasmodium falciparum NF54; format: functional, organism-based
Plasmodium falciparum [12] = test: Antimalarial activity against ART-resistant Plasmodium falciparum Dd2 harboring R539T mutant; format: functional, organism-based
Plasmodium falciparum [13] = test: Antimalarial activity against ART-resistant Plasmodium falciparum NF54 harboring […] mutant; format: functional, organism-based
Plasmodium falciparum [14] = test: Antimalarial activity against chloroquine resistant Plasmodium falciparum FcB1/Colombia; format: functional, organism-based
[15] = Selectivity index, ratio of IC50 for human AB943 to IC50 for chloroquine resistant Plasmodium falciparum FcB1/Colombia
Plasmodium falciparum [16] = test: Antimalarial activity against chloroquine resistant Plasmodium falciparum; format: functional, organism-based
Plasmodium falciparum [17] = test: Antimalarial activity against Plasmodium falciparum 3D7; format: functional, organism-based
Plasmodium yoelii [18] = test: Antimalarial activity against Plasmodium yoelii infected in sc dosed mouse; format: functional
Plasmodium berghei [19] = test: Antimalarial activity against Plasmodium berghei infected in sc dosed mouse; format: functional; conditions: Plasmodium berghei
Plasmodium berghei [20] = test: Antimalarial activity against Plasmodium berghei infected in po dosed mouse; format: functional
Plasmodium yoelii [21] = test: Antimalarial activity against Plasmodium yoelii infected in po dosed mouse; format: functional
Plasmodium falciparum [22] = test: Antimalarial activity against Plasmodium falciparum K1; format: functional, organism-based
Plasmodium falciparum [23] = test: Antimalarial activity against Plasmodium falciparum NF54; format: functional, organism-based
[24] = Selectivity index, ratio of IC50 for HEK293 cells to IC50 for Plasmodium falciparum NF54; format: toxicity; conditions: human, read-out: Ratio IC50
[25] = Toxicity in brine shrimp; conditions: artemia salina
Plasmodium falciparum [26] = test: Antimalarial activity against Plasmodium falciparum Dd2; format: functional, organism-based
Plasmodium falciparum [27] = test: Antimalarial activity against Plasmodium falciparum IPC5202; format: functional, organism-based
Plasmodium falciparum [28] = test: Antimalarial activity against Plasmodium falciparum IPC4912; format: functional, organism-based
Plasmodium falciparum [29] = test: Antimalarial activity against chloroquine-sensitive Plasmodium falciparum NF54 infected in po dosed mouse; format: functional
Plasmodium falciparum [30] = test: Antimalarial activity against chloroquine-sensitive Plasmodium falciparum NF54 infected in iv dosed mouse; format: functional
Plasmodium berghei [31] = test: Antimalarial activity against Plasmodium berghei K173 infected in mouse; format: functional; conditions: Plasmodium berghei, K173
Plasmodium falciparum [32] = test: Antimalarial activity against chloroquine-sensitive Plasmodium falciparum NF54; format: functional, organism-based
Plasmodium yoelii [33] = test: Antimalarial activity against Plasmodium yoelii infected in mouse; format: functional
Plasmodium berghei [34] = test: Antimalarial activity against Plasmodium berghei N strain infected in mouse at 30 mg/kg, ip administered once daily for 4 days; format: functional; conditions: time 4 day

SMILES: CC(CNCCO[C@H]1O[C@@H]2O[C@]3(C)CC[C@H]4[C@H](C)CC[C@@H]([C@H]1C)[C@@]24OO3)Nc1ccnc2cc(Cl)ccc12 (stereo partly specified)
- ED50 (Plasmodium vinckei [1]): 1.1 mg/kg
- ED50 (Plasmodium vinckei [2]): 12 mg/kg

SMILES: CCCN(CC(=O)NC(=O)c1ccccc1)C(=O)CCN1C(=O)[C@H](C)[C@@H]2CC[C@@H](C)[C@@H]3CC[C@]4(C)OO[C@]32[C@H]1O4
- Activity (Plasmodium falciparum [3]): 100%
- Activity (Plasmodium falciparum [4]): 99%
- Activity (Plasmodium falciparum [5]): 100%

SMILES: C[C@H]1[C@@H](OCC(CO[C@H]2O[C@@H]3O[C@]4(C)CC[C@H]5[C@H](C)CC[C@@H]([C@H]2C)[C@@]35OO4)=NO)O[C@@H]2O[C@]3(C)CC[C@H]4[C@H](C)CC[C@@H]1[C@@]24OO3
- IC50 (Plasmodium falciparum [6]): 13.8 nM
- IC50 (Plasmodium falciparum [7]): 9.9 nM
- Activity (Plasmodium berghei [8]): 100%

SMILES: C[C@H]1[C@H](N2CCN(c3ccc(S(=O)(=O)N(C)C)c4nonc34)CC2)O[C@@H]2O[C@]3(C)CC[C@H]4[C@H](C)CC[C@@H]1[C@@]24OO3
- IC50 (Plasmodium falciparum [9]): 348 nM
- IC50 (Plasmodium falciparum [10]): 249 nM
- IC50 (Plasmodium falciparum [11]): 16.4 nM
- IC50 (Plasmodium falciparum [12]): 497 nM
- IC50 (Plasmodium falciparum [13]): 13.5 nM

SMILES: CCOP(=O)(CCCN(O)C(=O)CCC(=O)N(CCCCNC(=O)CCO[C@H]1O[C@@H]2O[C@]3(C)CC[C@H]4[C@H](C)CC[C@@H]([C@H]1C)[C@@]24OO3)CCCCNC(=O)CC[C@@H]1O[C@@H]2O[C@@]3(C)CC[C@@H]4[C@@H](C)CC[C@@H]([C@@H]1C)[C@]24OO3)OCC
- IC50 (Plasmodium falciparum [14]): 0.65 nM
- Ratio IC50 [15]: 34

SMILES: CC(=O)OCCC[C@]12O[C@H]([C@@H]3OO[C@H]1O3)[C@H](C)C(=O)[C@@H]2C
- IC50 (Plasmodium falciparum [16]): 3 microg/cm3

SMILES: C[C@H]1[C@@H](OCCNCCNc2ccnc3cc(Cl)ccc23)O[C@@H]2O[C@]3(C)CC[C@H]4[C@H](C)CC[C@@H]1[C@@]24OO3
- IC50 (Plasmodium falciparum [17]): 20.5 nM
- ED50 (Plasmodium vinckei [1]): 1.4 mg/kg
- ED50 (Plasmodium vinckei [2]): 16 mg/kg

SMILES: C[C@H]1[C@H](NC2CCN(c3ncccn3)CC2)O[C@@H]2O[C@]3(C)CC[C@H]4[C@H](C)CC[C@@H]1[C@@]24OO3
- ED90 (Plasmodium yoelii [18]): 0.52 mg/kg
- ED90 (Plasmodium berghei [19]): 0.46 mg/kg
- ED90 (Plasmodium berghei [20]): 1.5 mg/kg
- ED90 (Plasmodium yoelii [21]): 2 mg/kg

SMILES: C[C@H]1[C@H](NC2CCOCC2)O[C@@H]2O[C@]3(C)CC[C@H]4[C@H](C)CC[C@@H]1[C@@]24OO3
- ED90 (Plasmodium yoelii [18]): 1.25 mg/kg
- ED90 (Plasmodium berghei [19]): 0.18 mg/kg
- ED90 (Plasmodium berghei [20]): 1.3 mg/kg
- ED90 (Plasmodium yoelii [21]): 1.84 mg/kg

SMILES: C[C@H]1[C@@H](OCCNCCCNc2ccnc3cc(Cl)ccc23)O[C@@H]2O[C@]3(C)CC[C@H]4[C@H](C)CC[C@@H]1[C@@]24OO3
- IC50 (Plasmodium falciparum [17]): 5.2 nM
- ED50 (Plasmodium vinckei [1]): < 0.8 mg/kg
- ED50 (Plasmodium vinckei [2]): 13 mg/kg

SMILES: CC(C)CCC[C@H](C)C1CC[C@H]2[C@@H]3CC=C4C[C@@H](OC(=O)CCN5CCN([C@H]6O[C@@H]7O[C@]8(C)CC[C@H]9[C@H](C)CC[C@@H]([C@H]6C)[C@@]79OO8)CC5)CC[C@]4(C)[C@H]3CC[C@]12C (stereo partly specified)
- IC50 (Plasmodium falciparum [7]): 24 nM
- IC50 (Plasmodium falciparum [22]): 29 nM
- IC50 (Plasmodium falciparum [23]): 31 nM
- selectivity ratio [24]: 3900

SMILES: COCCC[C@]12O[C@H]([C@@H]3OO[C@H]1O3)[C@H](C)C(=O)[C@@H]2C
- IC50 (Plasmodium falciparum [16]): 2 microg/cm3

SMILES: C[C@H]1[C@@H](OC(=O)c2ccc3[nH]cnc3c2)O[C@@H]2O[C@]3(C)CC[C@H]4[C@H](C)CC[C@@H]1[C@@]24OO3
- IC50 (Plasmodium falciparum [17]): 6.96 nM
- LC50 [25]: 362 µg/mL (≈ 844 µM)

SMILES: CC(C)CCC[C@H](C)C1CC[C@H]2[C@@H]3CC=C4C[C@@H](OC(=O)CCCCCN5CCN([C@H]6O[C@@H]7O[C@]8(C)CC[C@H]9[C@H](C)CC[C@@H]([C@H]6C)[C@@]79OO8)CC5)CC[C@]4(C)[C@H]3CC[C@]12C (stereo partly specified)
- IC50 (Plasmodium falciparum [7]): 70 nM
- IC50 (Plasmodium falciparum [22]): 52 nM
- IC50 (Plasmodium falciparum [23]): 78 nM
- selectivity ratio [24]: 1820

SMILES: O=P1(N(CCCl)CCCl)NCCCO1 (stereo unspecified) [CYCLOPHOSPHAMIDE ANHYDROUS]
- LC50 [25]: 1.08 µg/mL (≈ 4.14 µM)

SMILES: C1C2CC3CC1CC(C2)[C@]31OO[C@@]2(CCC(Nc3nn[nH]n3)CC2)O1 (stereo partly specified)
- IC50 (Plasmodium falciparum [17]): 2.8 nM
- IC50 (Plasmodium falciparum [26]): 2.5 nM
- IC50 (Plasmodium falciparum [27]): 6.1 nM
- IC50 (Plasmodium falciparum [28]): 6.8 nM

SMILES: C[C@H]1[C@H](OC(=O)CCC(=O)O)O[C@@H]2O[C@@]3(C)CC[C@H]4[C@H](C)CC[C@@H]1[C@@]24OO3 [ARTESUNATE]
- ED50 (Plasmodium falciparum [29]): 5.5 mg/kg
- ED50 (Plasmodium falciparum [30]): 5.5 mg/kg
- IC50 (Plasmodium falciparum [7]): 2 nM
- IC50 (Plasmodium falciparum [22]): 1.2 ng/mL
- IC50 (Plasmodium falciparum [23]): 1.2 ng/mL
- ED50 (Plasmodium berghei [31]): 6.33 mg/kg/day
- IC50 (Plasmodium falciparum [32]): 18.4 nM
- EC50 (Plasmodium falciparum [17]; read-out: EC50): 8.9 nM
- ED50 (Plasmodium yoelii [33]): 5 mg/kg
- Activity (Plasmodium berghei [34]): 97.7%
